According to patent publication EP0617288B1, “Long emission wavelength chemiluminescent compounds and their use in test assays” (Novartis AG, priority 1993, dated 1994):

What was measured:
[1] = Light emission spectra by Fast Spectral Scanning System (FSSS); assay type: physicochemical; conditions: for emission spectrum peak: figure legends FIGS. 2A-2E, 3A-3J; for Emission Max: in 0.5 ml acetonitrile, Flashing Reagent #1 and #2, maximum could vary by 0-4 nm between determinations; for Range: spectral region with signal intensity of above 5% of peak height
Method: The light emission spectra of LBAC's and the reference acridinium esters were determined by a Fast Spectral Scanning System (FSSS) of Photo Research (a division of Kollmorgen Corp) of Burbank, CA, U.S.A. The experiment was carried out in a dark room. Each sample was dissolved in HPLC grade acetonitrile at the concentration of 1 mg/ml or higher and diluted with the same solvent to obtain the sample solution in the concentration specified. A typical determination utilized 10 to 100 ug of each compound, with the exception of the angular benz[a]acridinium ester (2 mg), separately or mixed together in 0.5 ml acetonitrile contained in 13 x 100 mm borosilicate test tube. The tube was placed on a tube rack raised to a proper height. The FSSS optical head was placed in front of the tube at close distance and with its lens focused on the liquid in the tube. The sample solution was first treated with 0.35 ml of the Flashing Reagent #1 (Ciba Corning Diagnostics) containing 0.1 N HNO3 and 0.1% H2O2. […] The light which was generated instantaneously following the addition of the Reagent #2 was recorded by FSSS for 4 seconds except for 2-MeO-LEAE-Imidate which was recorded for 30 seconds starting from split second before the Reagent #2 was added.
Recorded emission spectra are shown in FIGS. 2A-2E, 3A-3J, and 4A-4D. FIGS. 2A-2E and 3A-3J show individual emission spectra of chemiluminescent compounds including an acridinium ring system and compounds including a benzacridinium ring system. […] The major portions of the original constituting spectra which remained unchanged were indeed non-overlapping. These important physical characteristics fulfill the prerequisite for two or more subclasses of chemiluminescent compounds to be utilized in test assays for detecting and/or quantitating at least two substances in a test sample, and particularly to multianalyte clinical diagnostic assays.

[2] = Kinetic study on light emission (time course up to 10 seconds); assay type: physicochemical; conditions: normalized to 10 seconds
Method: A time course study over a period of up to 10 seconds was conducted to determine these percentages, by flashing the compounds and normalizing all the signals collected for different lengths of time to that of 10 seconds.

| Molecule | emission spectrum peak [1] | Emission Max [1] | Range [1] | difference of the emission maxima ([1]; versus acridinium esters) | Percent signal released over different lengths of time ([2]; 0.5 s) | Percent signal released over different lengths of time ([2]; 1.0 s) | Percent signal released over different lengths of time ([2]; 2.0 s) | Percent signal released over different lengths of time ([2]; 4.0 s) | Percent signal released over different lengths of time ([2]; 6.0 s) | Percent signal released over different lengths of time ([2]; 10.0 s) |
| --- | --- | --- | --- | --- | --- | --- | --- | --- | --- | --- |
| (4-Benzyloxycarbonyl-2,6-diisopropyl)phenyl 10-Methyl-acridinium-9-carboxylate Fluorosulfonate [DIPAE-Bz, reference compound] | ≈ 428 nm | 426 nm | 405-520 nm | – | 14% | 64% | 89% | 97% | 98% | 100% |
| COc1ccc2c(C(=O)Oc3c(C)cc(C(=O)OCc4ccccc4)cc3C)c3ccccc3[n+](C)c2c1 [3-MeO-DMAE-Bz, (4-Benzyloxycarbonyl-2,6-dimethyl)phenyl 3-Methoxy-10-methyl-acridinium-9-carboxylate Fluorosulfonate, reference compound] | ≈ 422 nm | 422 nm | 395-520 nm | – | 26% | 49% | 57% | 70% | 80% | 100% |
| [2,6-Dimethyl-4-(2-methoxyiminoethyl)]phenyl 2-Methoxy-5-methyl-benz[b]acridinium-12-carboxylate Dichloride [2-MeO-LEAE-Imidate] | ≈ 550 nm | 550 nm | 500-710 nm | – | 6% | 23% | 40% | 59% | 76% | 100% |
| COc1ccc2c(c1)c(C(=O)Oc1c(C)cc(C(=O)ON3C(=O)CCC3=O)cc1C)c1cc3ccccc3cc1[n+]2CCS(=O)(=O)[O-] [2-MeO-NSE-LEAE-NHS, (2,6-Dimethyl-4-N-succinimidyloxycarbonyl)phenyl 2-Methoxy-5-(2-sulfoethyl)-benz[b]acridinium-12-carboxylate] | ≈ 546 nm | 546 nm | 500-700 nm | – | 22% | 58% | 79% | 90% | 96% | 100% |
| COc1ccc2c(c1)c(C(=O)Oc1c(C)cc(C(=O)OCc3ccccc3)cc1C)c1cc3ccccc3cc1[n+]2C [2-MeO-LEAE-Bz, (4-Benzyloxycarbonyl-2,6-dimethyl)phenyl 2-Methoxy-5-methyl-benz[b]acridinium-12-carboxylate Fluorosulfonate] | ≈ 550 nm | 550 nm | 510-700 nm | – | 16% | 42% | 65% | 83% | 92% | 100% |
| Cc1cc(C(=O)OCc2ccccc2)cc(C)c1OC(=O)c1c2ccccc2[n+](C)c2ccc3ccccc3c12 [ABAC, (4-Benzyloxycarbonyl-2,6-dimethyl)phenyl 5-methyl-benz[a]acridinium-12-carboxylate methosulfate, reference compound] | ≈ 440 nm | 436-440 nm | 410-530 nm | 8-14 nm | 3% | 20% | 52% | 73% | 89% | 100% |
| CCOc1ccc2c(C(=O)Oc3c(C)cc(C(=O)OCc4ccccc4)cc3C)c3cc4ccccc4cc3[n+](C)c2c1 [3-EtO-LEAE-Bz, (4-Benzyloxycarbonyl-2,6-dimethyl)phenyl 3-Ethoxy-5-methyl-benz[b]acridinium-12-carboxylate Fluorosulfonate] | ≈ 508 nm | 508 nm | 470-660 nm | – | 45% | 78% | 85% | 93% | 95% | 100% |
| Cc1cc(C(=O)ON2C(=O)CCC2=O)cc(C)c1OC(=O)c1c2cc(OCC[N+](C)(C)C)ccc2[n+](C)c2cc3ccccc3cc12 [2-QAE-LEAE-NHS, (2,6-Dimethyl-4-succinimidyloxycarbonyl)phenyl 5-Methyl-2-(trimethylammonium)ethoxy-benz[b]acridinium-12-carboxylate Difluorosulfonate] | ≈ 550 nm | 550 nm | 510-700 nm | – | 9% | 37% | 59% | 76% | 88% | 100% |

More lines, main results first:

| emission spectrum peak [1] | Emission Max [1] | Range [1] | difference of the emission maxima ([1]; versus acridinium esters) | Molecule | Percent signal released over different lengths of time ([2]; 0.5 s) | Percent signal released over different lengths of time ([2]; 1.0 s) | Percent signal released over different lengths of time ([2]; 2.0 s) | Percent signal released over different lengths of time ([2]; 4.0 s) | Percent signal released over different lengths of time ([2]; 6.0 s) | Percent signal released over different lengths of time ([2]; 10.0 s) |
| --- | --- | --- | --- | --- | --- | --- | --- | --- | --- | --- |
| ≈ 516 nm | 516 nm | 482-655 nm | – | Cc1cc(C(=O)OCc2ccccc2)cc(C)c1OC(=O)c1c2ccccc2[n+](CCCS(=O)(=O)[O-])c2cc3ccccc3cc12 [NSP-LEAE-Bz, (4-Benzyloxycarbonyl-2,6-dimethyl)phenyl 5-(3-Sulfopropyl)-benz[b]acridinium-12-carboxylate] | 14% | 72% | 91% | 96% | 95% | 100% |
| ≈ 520 nm | 520 nm | 485-670 nm | – | CC(C)c1cc(C(=O)OCc2ccccc2)cc(C(C)C)c1OC(=O)c1c2ccccc2[n+](C)c2cc3ccccc3cc12 [DIP-LEAE-Bz, (4-Benzyloxycarbonyl-2,6-diisopropyl)phenyl 5-Methyl-benz[b]acridinium-12-carboxylate Fluorosulfonate] | 4% | 26% | 47% | 67% | 80% | 100% |
| ≈ 520 nm | 520 nm | 485-670 nm | – | COc1ccc(N(C(=O)c2c3ccccc3[n+](C)c3cc4ccccc4cc23)S(=O)(=O)c2cccc(C(=O)OCc3ccccc3)c2)cc1 [LEAC-Bz, N-(4-Methoxyphenyl)-N-[3-(benzyloxycarbonyl)phenylsulfonyl] 5-Methyl-benz[b]acridinium-12-carboxamide Fluorosulfonate] | 73% | 82% | 93% | 98% | 102% | 100% |
| ≈ 520 nm | 520-524 nm | 490-670 nm | – | Cc1cc(C(=O)OCc2ccccc2)cc(C)c1OC(=O)c1c2ccccc2[n+](C)c2cc3ccccc3cc12 [LEAE-Bz, (4-Benzyloxycarbonyl-2,6-dimethyl)phenyl 5-Methyl-benz[b]acridinium-12-carboxylate Fluorosulfonate] | 27% | 71% | 88% | 97% | 98% | 100% |
